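Tested at 5 concentrations; 48 h exposure; 96-well plates; endpoints linearly interpolated, else capped at highest concentration. At the GI50, growth is halved.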 The source made the active and inactive calls. Rule as the data show it: active = GI50 up to about 1.1 µM and inactive = higher.
Assays:
Assay in all cases: NCI anticancer screen, dose series, 48 h
KM12 = tested on: KM12
SNB-75 = tested on: SNB-75
RXF 393 = tested on: RXF 393
HCC 2998 = tested on: HCC 2998
HOP-92 = tested on: HOP-92
NCI-H460 = tested on: NCI-H460
SR = tested on: SR
786-0 = tested on: 786-0
NCI-H226 = tested on: NCI-H226
HL-60 = tested on: HL-60
CAKI-1 = tested on: CAKI-1
T47D = tested on: T47D
HCT-116 = tested on: HCT-116
PC-3 = tested on: PC-3
LOX IMVI = tested on: LOX IMVI
A498 = tested on: A498
NCI-H522 = tested on: NCI-H522
SF-295 = tested on: SF-295
NCI/ADR-RES = tested on: NCI/ADR-RES
M14 = tested on: M14

Compound	GI50 (KM12)	GI50 (SNB-75)	GI50 (RXF 393)	GI50 (HCC 2998)	GI50 (HOP-92)	GI50 (NCI-H460)	GI50 (SR)	GI50 (786-0)	GI50 (NCI-H226)	GI50 (HL-60)	GI50 (CAKI-1)	GI50 (T47D)	GI50 (HCT-116)	GI50 (PC-3)	GI50 (LOX IMVI)	GI50 (A498)	GI50 (NCI-H522)	GI50 (SF-295)	GI50 (NCI/ADR-RES)	GI50 (M14)
COC(=O)c1sc2nc(Nc3ccccc3)/c(=N\c3ccccc3)sc2c1C	> 100 µM (inactive)	25 µM (inactive)	24.3 µM (inactive)	> 100 µM (inactive)	31.3 µM (inactive)	45.4 µM (inactive)	47.6 µM (inactive)	34.8 µM (inactive)	> 100 µM (inactive)	> 100 µM (inactive)	58.6 µM (inactive)	> 100 µM (inactive)	51.8 µM (inactive)	> 100 µM (inactive)	> 100 µM (inactive)	53.7 µM (inactive)	30.3 µM (inactive)	51.4 µM (inactive)	80.5 µM (inactive)	–
C=C(Cl)C(Cl)(CBr)CCC(Cl)C(C)(C)Cl (stereo not given)	0.375 µM (active)	0.23 µM (active)	1.35 µM (inactive)	4.52 µM (inactive)	1.16 µM (inactive)	1.19 µM (inactive)	15.1 µM (inactive)	0.388 µM (active)	22.2 µM (inactive)	0.713 µM (active)	1.08 µM (active)	0.256 µM (active)	0.638 µM (active)	1.53 µM (inactive)	12.9 µM (inactive)	1.77 µM (inactive)	8.2 µM (inactive)	3.17 µM (inactive)	3.01 µM (inactive)	17.9 µM (inactive)
Cc1ccc(O)c(C(c2cc(C)ccc2O)c2cc([N+](=O)[O-])ccc2O)c1	7.74 µM (inactive)	5.46 µM (inactive)	17.8 µM (inactive)	12.4 µM (inactive)	14.8 µM (inactive)	–	8.43 µM (inactive)	16.1 µM (inactive)	14.4 µM (inactive)	3.42 µM (inactive)	12.2 µM (inactive)	16.9 µM (inactive)	24.6 µM (inactive)	9.02 µM (inactive)	31.7 µM (inactive)	17.2 µM (inactive)	13.2 µM (inactive)	16.7 µM (inactive)	21.1 µM (inactive)	11 µM (inactive)
COc1cccc(/C=N/NC(=O)CSCC(=O)N/N=C/c2cccc(OC)c2OC)c1OC	> 100 µM (inactive)	> 100 µM (inactive)	> 100 µM (inactive)	> 100 µM (inactive)	> 100 µM (inactive)	> 100 µM (inactive)	> 100 µM (inactive)	> 100 µM (inactive)	> 100 µM (inactive)	> 100 µM (inactive)	> 100 µM (inactive)	> 100 µM (inactive)	> 100 µM (inactive)	> 100 µM (inactive)	–	51.2 µM (inactive)	> 100 µM (inactive)	> 100 µM (inactive)	> 100 µM (inactive)	> 100 µM (inactive)
CC(=O)OC1COC(n2nc(/C=C/c3ccc(Cl)cc3)c(=O)n(/N=C/c3ccccc3)c2=S)C(OC(C)=O)C1OC(C)=O (stereo not given)	> 100 µM (inactive)	> 100 µM (inactive)	> 100 µM (inactive)	> 100 µM (inactive)	> 100 µM (inactive)	> 100 µM (inactive)	> 100 µM (inactive)	> 100 µM (inactive)	> 100 µM (inactive)	> 100 µM (inactive)	> 100 µM (inactive)	> 100 µM (inactive)	> 100 µM (inactive)	> 100 µM (inactive)	> 100 µM (inactive)	> 100 µM (inactive)	> 100 µM (inactive)	> 100 µM (inactive)	> 100 µM (inactive)	> 100 µM (inactive)
O=c1c2cccnc2n2n1Cc1ccccc1C2	–	> 100 µM (inactive)	> 100 µM (inactive)	> 100 µM (inactive)	> 100 µM (inactive)	> 100 µM (inactive)	> 100 µM (inactive)	> 100 µM (inactive)	> 100 µM (inactive)	> 100 µM (inactive)	> 100 µM (inactive)	> 100 µM (inactive)	> 100 µM (inactive)	> 100 µM (inactive)	> 100 µM (inactive)	> 100 µM (inactive)	> 100 µM (inactive)	> 100 µM (inactive)	> 100 µM (inactive)	–
